We go through four compounds from EPA's ToxValDB 9.5.

The subject of series [1] is Mus musculus. The following applies: repeat dose other; oral.
Series [2] concerns Rattus norvegicus. As to conditions: subchronic, oral, diet, Fischer 344, Hematology: Hct decrease, Hgb decrease, RBC decrease + Blood Chemistry: CPK increase + Absolute Organ Weight: Liver decrease + Relative ….
For series [3], the system named is Rattus norvegicus. As to conditions: M/F.
The test system of a further series is Homo sapiens. As to conditions: clinical; duration: 3.5 hours; inhalation; M; neurological.
A further series relates to Tatera sp. As to conditions: intermediate; duration: 3 months; Inhalation; M/F; Mongolian; neurological.
Another series relates to Phasianus colchicus. As to conditions: oral.
For series [4], the system named is Rattus norvegicus. The following applies: repeat dose other; oral.
Another series deals with Cavia porcellus. As to conditions: subchronic; duration: 90 days; oral; diet; M/F; Guinea Pig; lymphatic.
For a further series, the system named is Monkey. The following applies: developmental; duration: 16 months; oral; diet; M/F; Rhesus; developmental.
Series [5] deals with Mus musculus. As to conditions: acute; duration: 1 days; oral; gavage; F; B6C3F1; immunological.
For series [6], the system named is Canidae. The following applies: chronic, duration: 1 years, oral, diet, Dog Other, Cardiac toxicity and moderate-to-severe dilation of the right atrium.
For another series, the system named is Oryctolagus sp. The following applies: reproduction developmental; duration: 12 days; oral; gavage; F; New Zealand; body weight.
The next series deals with Sus scrofa. As to conditions: short-term; duration: 19 days; oral; diet; F; Swedish Landrace/Large Yorkshire cross; reproductive.
Series [7] relates to Rattus norvegicus. As to conditions: chronic; duration: 2 years; oral; diet; Whole body: Decreased weight gain.
For series [8], the system named is Canidae. The following applies: chronic; duration: 26 weeks; oral; capsule; M/F; Beagle; gastrointestinal.
Series [9] has as its system Canidae. As to conditions: duration: 26 weeks, oral, capsule, M/F, Beagle, Liquid feces.
Series [10] concerns Rattus norvegicus. The following applies: duration: 7 days, oral, M, Reduced proportion of time spent in open field central zones, increased immobility time in the open field, reduced proportion of time spent ….
Where [11] appears, read: chronic, duration: 2 years, oral, diet, reduced body weight gain.
Setting [12] is: reproduction developmental, oral, Reduced body weight gain preceding pregnancy reduced body weight gain in offspring during weaning period.

Structures are written as SMILES.

Regarding `CC(Cl)(Cl)Cl` [1,1,1-Trichloroethane], the NOAEL (in general, the highest dose or exposure tested at which no adverse effect was seen) is 1000 mg/kg-day in the series with Mus musculus [1]; 8190 mg/m3 in the series on Rattus norvegicus [3] (chronic, duration: 2 years, inhalation, liver histopathologic changes); 70 ppm with Tatera sp.. The NOEL in the series with Rattus norvegicus [2] (F) is 310 mg/kg-day; with Rattus norvegicus [2] (M/F), 480 mg/kg-day. Besides, in the series with Homo sapiens, the lowest-observed-adverse-effect level (LOAEL) (in general, the lowest tested level that showed an adverse finding) was found to be 955 mg/m3.
Take `Clc1cc2c(cc1Cl)Oc1cc(Cl)c(Cl)cc1O2` [2,3,7,8-Tetrachlorodibenzo-p-dioxin]: the LOAEL in the series with Phasianus colchicus was determined as 0.00014 mg/kg-day; with Rattus norvegicus [4], 1e-05 mg/kg-day; in the series on Monkey, 1.2e-07 mg/kg-day. Moreover, the no-observed-adverse-effect level (NOAEL) in the series with Phasianus colchicus amounted to 1.4e-05 mg/kg-day; with Rattus norvegicus [4] it was 1e-06 mg/kg-day; in the series with Cavia porcellus, 7e-07 mg/kg-day; in the series on Mus musculus [5] it was 5e-06 mg/kg-day.
Regarding `CCNc1nc(Cl)nc(NC(C)C)n1` [Atrazine], the LOAEL in the series with Canidae [6] (F) was 33.8 mg/kg-day; with Canidae [6] (M), 33.6 mg/kg-day; with Rattus norvegicus [3] (setting [11]), 25 mg/kg-day; with Sus scrofa, 1 mg/kg-day. Further, the NOAEL amounted to 4.97 mg/kg-day in the series with Canidae [6] (M/F), 3.5 mg/kg-day with Rattus norvegicus [3] (setting [11]) and 1 mg/kg-day in the series with Oryctolagus sp.. Moreover, the NOEL with Rattus norvegicus [7] amounted to 3.5 mg/kg-day.
Consider `CC1(C)C(C=C(Cl)C(F)(F)F)C1C(=O)OC(C#N)c1cccc(Oc2ccccc2)c1` (stereo not drawn) [alpha-Cyhalothrin], for which, in the series on Rattus norvegicus [3] (setting [12]), the LEL is 1.5 mg/kg-day. The NOEL was determined as 0.5 mg/kg-day in the series on Rattus norvegicus [3] (setting [12]), 1 mg/kg-day with Rattus norvegicus [10] (neurotoxicity) and 1 mg/kg-day with Rattus norvegicus [10] (short-term). Moreover, the NOAEL with Canidae [8] was 1 mg/kg-day. For the same compound, the LOEL in the series with Canidae [9] (chronic) and in the series on Canidae [9] was 1 mg/kg-day in each case.
